Source: US5470854A, “2-phenylbenzo[B]furans, process for their manufacture and pharmaceutical preparations containing them” (Schering Aktiengesellschaft, priority 1991, dated 1995)

Columns and labels:
uterus of infantile mice [1] = test: Uterotrophic test (in-vivo test on infantile mice); conditions: uterus dry weight (mg)/body weight (g) × 100
Description: (§1) The effectiveness of these compounds was found in an in-vivo test on infantile mice. This test is extensively described in Cancer Treatment Reviews 1984, 11, 147, and J. Med. Chem., 1984, 27, 1439.
(§2) ^a dosage/animal, administered s.c. on three consecutive days in oliv
(§3) ^b uterus dry weight (mg)/body weight (g) × 100, determined 24
(§4) hours after the final injection.

uterus of infantile mice [2] = test: Anti-uterotrophic test (in-vivo test on infantile mice); conditions: simultaneous 0.4 μg oestron/animal/day; for anti-uterotrophic test, effect: uterus dry weight (mg)/body weight (g) × 100
Description: as §1, §2, §3, §4
^c simultaneous administration of 0.4 μg oestron/animal/day.

oestrogen receptor = biological target: T1, oestrogen receptor (Bos taurus, UniProt P49884); test: Relative bonding affinity to the oestrogen receptor (competition with 3H-17β-Estradiol); type: binding, calf; conditions: for RBA* (relative bonding affinity to the oestrogen receptor): calves' uteri, in relation to 17β-estradiol = 100
T1 construct: oestrogen receptor of a calf's uterus; from tissue; host or cells: calf uterus
T1 sequence (P49884 1-596): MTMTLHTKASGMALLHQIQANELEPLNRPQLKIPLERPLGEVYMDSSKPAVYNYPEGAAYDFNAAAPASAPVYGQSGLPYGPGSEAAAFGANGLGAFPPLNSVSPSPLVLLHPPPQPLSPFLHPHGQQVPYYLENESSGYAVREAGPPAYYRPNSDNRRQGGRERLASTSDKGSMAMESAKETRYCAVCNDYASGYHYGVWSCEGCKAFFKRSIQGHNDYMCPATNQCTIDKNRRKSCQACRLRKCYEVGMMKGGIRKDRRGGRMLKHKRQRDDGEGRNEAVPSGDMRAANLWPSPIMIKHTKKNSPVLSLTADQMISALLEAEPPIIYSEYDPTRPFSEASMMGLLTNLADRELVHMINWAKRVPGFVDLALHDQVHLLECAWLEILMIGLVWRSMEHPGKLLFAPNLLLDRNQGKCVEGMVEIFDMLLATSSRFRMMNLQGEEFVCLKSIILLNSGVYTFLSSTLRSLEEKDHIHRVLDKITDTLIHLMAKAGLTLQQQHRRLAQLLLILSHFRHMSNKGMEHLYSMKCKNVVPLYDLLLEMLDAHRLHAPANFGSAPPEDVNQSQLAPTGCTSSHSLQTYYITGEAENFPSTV
Excerpt: The test methodology is described in Cancer Treatment Reviews 1984, 11, 147.
*Relative bonding affinities to the oestrogen receptor of calves' uteri,
in relation to 17β-estradiol = 100

[3] = system: human MCF-7 mamma carcinoma cells; test: Effect on cell growth of MCF-7 cells; type: cell-based; conditions: for activity at 10 µM / activity at 1 µM / activity at 0.1 µM / activity at 5 µM: Homo sapiens, MCF7, mean of 16 individual results, read-out: T/C (corrected); for activity at 10 µM: 1 × 10^-5 M; for activity at 1 µM: 1 × 10^-6 M; for activity at 0.1 µM: 1 × 10^-7 M; for activity at 5 µM: 5 × 10^-6 M
Description: Data given as corrected T/C values (%).
^a Inhibiting effect on MCF7 cells: quotient of optical densities fro
standard deviation through error reckoning according to GAUSS.
^b Substance concentration (mol/1) in incubation medium.
^c Significant p < 0.01 in relation to control group (C).

[4] = 1 μg/animal s.c. on three consecutive days
[5] = 5 μg/animal s.c. on three consecutive days
[6] = 25 μg/animal s.c. on three consecutive days
[7] = 125 μg/animal s.c. on three consecutive days

Compound	RBA* (relative bonding affinity to the oestrogen receptor) (oestrogen receptor)	effect on the growth of MCF-7 / hormone-dependent tumour cells, in words [3]	activity at 10 µM [3]	activity at 1 µM [3]	activity at 0.1 µM [3]	activity at 5 µM [3]	further results
Cc1c(-c2ccc(O)cc2)sc2ccc(O)cc12 [Compound 102a, 5-hydroxy-2-(4-hydroxypheny)-3-methyibenxo[b]thiophen]	26,0	strongly inhibiting effect	14.7 ± 6.4%	87.4 ± 20%	71.3 ± 18.8%	48.5 ± 14.7%	uterotrophic test, effect (uterus of infantile mice [1]; [4]): 15.8 ± 2.1 mg/g × 100; uterotrophic test, effect (uterus of infantile mice [1]; [5]): 20.8 ± 2.7 mg/g × 100; uterotrophic test, effect (uterus of infantile mice [1]; [6]): 15.7 ± 2.3 mg/g × 100; uterotrophic test, effect (uterus of infantile mice [1]; [7]): 18.5 ± 3.0 mg/g × 100; anti-uterotrophic test, inhibition (uterus of infantile mice [2]; 5 μg/animal s.c.): 12%; anti-uterotrophic test, inhibition (uterus of infantile mice [2]; 25 μg/animal s.c.): 68%; anti-uterotrophic test, inhibition (uterus of infantile mice [2]; 125 μg/animal s.c.): 42%; anti-uterotrophic test, effect (uterus of infantile mice [2]; 5 μg/animal s.c.): 42.4 ± 4.0 mg/g × 100; anti-uterotrophic test, effect (uterus of infantile mice [2]; 25 μg/animal s.c.): 23.1 ± 3.8 mg/g × 100; anti-uterotrophic test, effect (uterus of infantile mice [2]; 125 μg/animal s.c.): 32.2 ± 3.8 mg/g × 100; affinity to the oestrogen (estradiol) receptor, in words (oestrogen receptor): greatest affinity in relation to estradiol
CCCc1c(-c2ccc(O)cc2)oc2ccc(O)cc12 [Compound 63a, 5-hydroxy-2-(4-hydroxyphenyl)-3-propylbenzo[b]furan]	20,0	strongly inhibiting effect	-2.1 ± 2.8%	50.5 ± 8.8%	51 ± 11.3%	-0.1 ± 3.6%	affinity to the oestrogen (estradiol) receptor, in words (oestrogen receptor): greatest affinity in relation to estradiol
CCCc1c(-c2ccc(O)cc2)oc2cc(O)ccc12 [Compound 63b, 6-hydroxy-2-(4-hydroxyphenyl)-3-propylbenzo[b]furan]	1,7						
CCCCc1c(-c2ccc(O)cc2)oc2ccc(O)cc12 [Compound 64a, 3-butyl-5-hydroxy-2-(4-hydroxyphenyl)benzo[b]furan]	1,6						
Cc1c(-c2ccc(O)cc2)oc2cc(O)ccc12 [Compound 61b, 6-hydroxy-2-(4-hydroxyphenyl)-3-methylbenzo[b]furan]	0,2						
CCc1c(-c2ccc(O)cc2)oc2cc(O)ccc12 [Compound 62b, 3-ethyl-6-hydroxy-2-(4-hydroxyphenyl)benzo[b]furan]	0,6						uterotrophic test, effect (uterus of infantile mice [1]; [4]): 12.9 ± 2.5 mg/g × 100; uterotrophic test, effect (uterus of infantile mice [1]; [5]): 14.5 ± 3.7 mg/g × 100; uterotrophic test, effect (uterus of infantile mice [1]; [6]): 17.0 ± 3.3 mg/g × 100; uterotrophic test, effect (uterus of infantile mice [1]; [7]): 18.3 ± 6.3 mg/g × 100; anti-uterotrophic test, inhibition (uterus of infantile mice [2]; 125 μg/animal s.c.): 12%; anti-uterotrophic test, effect (uterus of infantile mice [2]; 5 μg/animal s.c.): 60.3 ± 5.8 mg/g × 100; anti-uterotrophic test, effect (uterus of infantile mice [2]; 25 μg/animal s.c.): 56.9 ± 7.1 mg/g × 100; anti-uterotrophic test, effect (uterus of infantile mice [2]; 125 μg/animal s.c.): 49.8 ± 7.9 mg/g × 100
Cc1c(-c2ccc(O)cc2)oc2ccc(O)cc12 [Compound 61a]	2,0	strongly inhibiting effect	13.3 ± 5.3%	78.1 ± 17.2%	72.3 ± 18.2%	37.7 ± 11.9%	
CC/C(=C(\c1ccccc1)c1ccc(OCCN(C)C)cc1)c1ccccc1 [Tam, Tamoxifen, reference compound]			-5.7 ± 3.4%	59.1 ± 14.1%	56.5 ± 16.3%		
CCCCc1c(-c2ccc(O)cc2)oc2cc(O)ccc12 [Compound 64b, 3-butyl-6-hydroxy-2-(4-hydroxyphenyl)benzo[b]furan]	0,6						
